Assay results published in patent publication US10442791B2, “DNA-PK inhibitors” (Vertex Pharmaceuticals Incorporated, priority 2012, dated 2019).

Tests used:
Assay type in all cases: cell-based
H838 = test: Cell viability following irradiation (CellTiter-Glo), H838; conditions: H838 (Lung Cancer), viability at 6 days
Method: (§1) To evaluate the radiosensitizing effects of compounds of the invention in combination with ionizing radiation (IR), a broad panel of cell lines across multiple tumor types and genetic backgrounds were tested. Cells were incubated with DMSO or compound 578 for 30 minutes and then exposed to various doses of radiation (0, 0.5, 1, 2, 4, 6, 8, and 16 Gy). Cell viability was assessed at 6 days using CellTiter-Glo® (Promega, Inc).

Huh7 = test: Cell viability following irradiation (CellTiter-Glo), Huh7; conditions: Huh7 (Hepatocellular Carcinoma), viability at 6 days
Method: as §1

glioblastoma cell lines = test: Cell viability following irradiation, glioblastoma cell lines; conditions: generally less sensitive to radiation alone
Method: as §1

PATU8889T = test: Cell viability following irradiation (CellTiter-Glo), PATU8889T; conditions: PATU8889T (Pancreatic cancer), viability at 6 days
Method: as §1

H2009 = test: Cell viability following irradiation (CellTiter-Glo), H2009; conditions: H2009 (Lung Cancer), viability at 6 days
Method: as §1

A549 = test: Cell viability following irradiation (CellTiter-Glo), A549; conditions: A549 (Lung Cancer), viability at 6 days
Method: as §1

SK-MEL-5 = test: Cell viability following irradiation (CellTiter-Glo), SK-MEL-5; conditions: SK-MEL-5 (Melanoma), viability at 6 days
Method: as §1

- EC50 IR (H838; compound 578 0.7 μM + IR): 0.6 Gy
- EC50 IR (H838; compound 578 2.1 μM + IR): <0.5 Gy
- EC50 IR (Huh7; compound 578 0.7 μM + IR): 1.3 Gy
- EC50 IR (Huh7; compound 578 2.1 μM + IR): 0.8 Gy
- EC50 IR (H2009; compound 578 0.7 μM + IR): 2.7 Gy
- EC50 IR (H2009; compound 578 2.1 μM + IR): 1.5 Gy
- EC50 IR (A549; compound 578 0.7 μM + IR): 0.5 Gy
- EC50 IR (A549; compound 578 2.1 μM + IR): <0.5 Gy
- EC50 IR (SK-MEL-5; compound 578 0.7 μM + IR): 2.7 Gy
- EC50 IR (SK-MEL-5; compound 578 2.1 μM + IR): 2.3 Gy
SMILES: CNC(=O)c1ccnc2c([C@H](C)CNc3cc(-c4cnc(C)nc4)ncn3)cccc12 [Compound 578, (S)—N-methyl-8-(1-((2′-methyl-[4,5′-bipyrimidin]-6-yl)amino)propan-2-yl)quinoline-4-carboxamide]
- radiosensitization (glioblastoma cell lines): less radiosensitization
- EC50 IR (PATU8889T; compound 578 0.7 μM + IR): 1.1 Gy
- EC50 IR (PATU8889T; compound 578 2.1 μM + IR): 0.9 Gy
